According to the NIST ThermoML archive (doi:10.1021/je9005618):

Assay: refractive index (Na D-line) (dimensionless); xn = mol fraction of the nth substance listed
Settings: 101 kPa, Liquid

CCn1cc[n+](C)c1.O=S(=O)([O-])C(F)(F)F [1-ethyl-3-methylimidazolium trifluoromethanesulfonate] + COC(C)=O
refractive index
Settings | 288.15 K | 298.15 K | 308.15 K | 318.15 K
x1 = 0.05083 | 1.37625 | 1.37116 | 1.3671 | 1.36334
x1 = 0.09991 | 1.38561 | 1.38057 | 1.37793 | 1.37521
x1 = 0.1515 | 1.39328 | 1.38873 | 1.38548 | 1.38291
x1 = 0.1998 | 1.39836 | 1.39419 | 1.39098 | 1.38871
x1 = 0.2997 | 1.40796 | 1.40429 | 1.40087 | 1.39857
x1 = 0.4003 | 1.41462 | 1.4112 | 1.40804 | 1.40487
x1 = 0.4958 | 1.42026 | 1.41695 | 1.41367 | 1.41049
x1 = 0.595 | 1.42444 | 1.42123 | 1.41831 | 1.41533
x1 = 0.6962 | 1.42797 | 1.42488 | 1.42201 | 1.41907
x1 = 0.7954 | 1.43089 | 1.42794 | 1.4251 | 1.42226
x1 = 0.8385 | 1.43234 | 1.42944 | 1.42649 | 1.42364
x1 = 0.8977 | 1.43347 | 1.43061 | 1.42771 | 1.42488
x1 = 0.9466 | 1.43451 | 1.4317 | 1.4289 | 1.42618
